In brackets after ≈: the same amount, converted by molar mass. Each block holds one compound with its values, some of them ahead of it.
Legend:
Assay in all cases: ≥ marks a high value that may be exact or a test limit, other limits are often not marked, values filed in µg/mL are converted to µM
[1] = test system: Staphylococcus epidermidis ATCC 12228
[2] = test system: Micrococcus luteus ATCC 9341
[3] = test system: Shigella flexneri ATCC 203
[4] = test system: Staphylococcus aureus ATCC 6538
[5] = test system: Corynebacterium diphtheriae ATCC 8024
[6] = test system: Pseudomonas aeruginosa ATCC 9027
[7] = test system: Escherichia coli ATCC 2592
[8] = test system: Candida albicans ATCC 36232
[9] = test system: Bacillus subtilis ATCC 6633
Staphylococcus aureus = test system: Staphylococcus aureus
[10] = test system: Escherichia coli IFO 3301
[11] = test system: Bacillus subtilis IFO 3336
Pseudomonas aeruginosa = test system: Pseudomonas aeruginosa
[12] = test system: Trichophyton mentagrophytes IFO 5466
[13] = test system: Staphylococcus aureus KO-4
[14] = test system: Trypanosoma brucei brucei GUT Tat3.1
[15] = test system: Pseudomonas aeruginosa CCARM 2095
[16] = test system: Bacillus subtilis KCTC 3068
[17] = test system: Pseudomonas aeruginosa KCTC 1637
[18] = test system: Pseudomonas aeruginosa CCARM 2109
[19] = test system: Salmonella typhimurium KCTC 1926
[20] = test system: Candida albicans KCTC 7965
[21] = test system: Escherichia coli KCTC 1682
[22] = test system: Staphylococcus aureus CCARM 3001
[23] = test system: Staphylococcus epidermidis KCTC 1917
[24] = test system: Staphylococcus aureus CCARM 3543
[25] = test system: Staphylococcus aureus KCTC 1621

- MIC [1]: > 84.9 µM
- MIC [2]: ≥ 84.9 µM
- MIC [3]: ≥ 84.9 µM
- MIC [4]: > 84.9 µM
- MIC [5]: ≥ 84.9 µM
- MIC [6]: > 84.9 µM
- MIC [7]: ≥ 84.9 µM
- MIC [8]: ≥ 84.9 µM
- MIC [9]: ≥ 84.9 µM
- MIC (Staphylococcus aureus): > 84.9 µM
Compound: CC(C)C[C@H](NC(=O)[C@@H]1CSSC[C@H](NC(=O)[C@H](C)NC(=O)[C@H](C)NC(=O)[C@@H](N)CC(=O)O)C(=O)N[C@@H](C)C(=O)N[C@@H](C)C(=O)N[C@@H](Cc2cnc[nH]2)C(=O)N1)C(=O)N[C@@H](Cc1ccccc1)C(=O)N[C@@H](CCCN=C(N)N)C(N)=O [DAACAAHCLFR]

- MIC [10]: ≥ 111 µM
- MIC [11]: ≥ 111 µM
Compound: NC(N)=NCCC[C@H](NC(=O)[C@H](Cc1cnc[nH]1)NC(=O)[C@H](CCCN=C(N)N)NC(=O)[C@H](Cc1cnc[nH]1)NC(=O)[C@@H](N)CCCN=C(N)N)C(=O)N[C@@H](Cc1cnc[nH]1)C(=O)O [RHRHRH]

- MIC (Pseudomonas aeruginosa): 347 µM (≈ 400 µg/mL)
- MIC [12]: 13 µM (≈ 15 µg/mL)
- MIC [13]: ≥ 521 µM
- MIC [14]: ≥ 325 µM
Compound: CC[C@H](C)[C@H](NC(=O)[C@H](CCCN=C(N)N)NC(=O)[C@H](CC(C)C)NC(=O)[C@H](CC(C)C)NC(=O)[C@H](CC(C)C)NC(=O)[C@@H](N)CCCN=C(N)N)C(=O)NCC(=O)N[C@@H](CCCN=C(N)N)C(=O)N[C@@H](CCCN=C(N)N)C(N)=O [RLLLRIGRR]

- MIC [15]: 16 µM (≈ 27.8 µg/mL)
- MIC [16]: 4 µM (≈ 6.96 µg/mL)
- MIC [17]: 8 µM (≈ 13.9 µg/mL)
- MIC [18]: 16 µM (≈ 27.8 µg/mL)
- MIC [19]: 2 µM (≈ 3.48 µg/mL)
- MIC [20]: ≥ 64 µM
- MIC [21]: 8 µM (≈ 13.9 µg/mL)
- MIC [22]: 8 µM (≈ 13.9 µg/mL)
- MIC [23]: 2 µM (≈ 3.48 µg/mL)
- MIC [24]: 2 µM (≈ 3.48 µg/mL)
- MIC [25]: 4 µM (≈ 6.96 µg/mL)
Compound: CC(C)C[C@H](NC(=O)[C@H](Cc1c[nH]c2ccccc12)NC(=O)[C@H](CCCNC(=N)N)NC(=O)[C@H](CCCNC(=N)N)NC(=O)[C@H](Cc1c[nH]c2ccccc12)NC(=O)[C@H](CCCNC(=N)N)NC(=O)[C@H](CCCNC(=N)N)NC(=O)[C@H](Cc1c[nH]c2ccccc12)NC(=O)[C@H](CC(C)C)NC(=O)[C@@H](N)CCCNC(=N)N)C(=O)N[C@@H](CCCNC(=N)N)C(=O)O [RLWRRWRRWLR]

From DBAASP
